Assay results reported in ChEMBL document CHEMBL5584255, “Synthesis and antibacterial medicinal evaluation of carbothioamido hydrazonyl thiazolylquinolone with multitargeting antimicrobial potential to combat increasingly global resistance” (Eur J Med Chem, 2024).
≈ marks a conversion by molar mass, not a printed value.

Assays:
Assay type in all cases: functional
[1] = tested on: Staphylococcus aureus; assay: Antibacterial activity against Staphylococcus aureus ATCC 25923 by microbroth dilution method
[2] = tested on: Staphylococcus aureus; assay: Antibacterial activity against Staphylococcus aureus ATCC 29213 by microbroth dilution method
[3] = tested on: Staphylococcus aureus; assay: Antibacterial activity against drug-resistant Staphylococcus aureus by microbroth dilution method
[4] = tested on: Staphylococcus aureus; assay: Antibacterial activity against methicillin-resistant Staphylococcus aureus N315 by microbroth dilution method
[5] = tested on: Enterococcus faecalis; assay: Antibacterial activity against drug-resistant Enterococcus faecalis by microbroth dilution method
[6] = tested on: Candida albicans; assay: Antifungal activity against Candida albicans ATCC 90023
[7] = tested on: Candida albicans; assay: Antifungal activity against drug-resistant Candida albicans
[8] = tested on: Candida parapsilosis; assay: Antifungal activity against Candida parapsilosis ATCC 22019; settings: Lodderomyces parapsilosis
[9] = tested on: Candida tropicalis; assay: Antifungal activity against drug-resistant Candida tropicalis
[10] = tested on: Aspergillus fumigatus; assay: Antifungal activity against Aspergillus fumigatus
[11] = tested on: Escherichia coli; assay: Antibacterial activity against Escherichia coli ATCC 25922 by microbroth dilution method
[12] = tested on: Pseudomonas aeruginosa; assay: Antibacterial activity against Pseudomonas aeruginosa ATCC 27853 by microbroth dilution method
[13] = tested on: Escherichia coli; assay: Antibacterial activity against drug-resistant Escherichia coli by microbroth dilution method
[14] = tested on: Pseudomonas aeruginosa; assay: Antibacterial activity against Pseudomonas aeruginosa by microbroth dilution method
[15] = tested on: Klebsiella pneumoniae; assay: Antibacterial activity against Klebsiella pneumoniae by microbroth dilution method
[16] = tested on: Acinetobacter baumannii; assay: Antibacterial activity against Acinetobacter baumannii by microbroth dilution method

Structure (SMILES)	MIC [1] [µM]	MIC [2] [µM]	MIC [3] [µM]	MIC [4] [µM]	MIC [5] [µM]	MIC [6] [µM]	MIC [7] [µM]	MIC [8] [µM]	MIC [9] [µM]	MIC [10] [µM]	MIC [11] [µM]	MIC [12] [µM]	MIC [13] [µM]	MIC [14] [µM]	MIC [15] [µM]	MIC [16] [µM]
C/C(Cn1cc(-c2csc(C)n2)c(=O)c2cc(F)ccc21)=N\NC(N)=S	658 (≈ 256 µg/mL)	658 (≈ 256 µg/mL)	658 (≈ 256 µg/mL)	658 (≈ 256 µg/mL)	1320 (≈ 513 µg/mL)	658 (≈ 256 µg/mL)	658 (≈ 256 µg/mL)	329 (≈ 128 µg/mL)	1320 (≈ 513 µg/mL)	658 (≈ 256 µg/mL)	658 (≈ 256 µg/mL)	658 (≈ 256 µg/mL)	658 (≈ 256 µg/mL)	658 (≈ 256 µg/mL)	165 (≈ 64.3 µg/mL)	658 (≈ 256 µg/mL)
Cc1nc(-c2c[nH]c3ccc(F)cc3c2=O)cs1	1970 (≈ 513 µg/mL)	985 (≈ 256 µg/mL)	1970 (≈ 513 µg/mL)	1970 (≈ 513 µg/mL)	985 (≈ 256 µg/mL)	492 (≈ 128 µg/mL)	985 (≈ 256 µg/mL)	492 (≈ 128 µg/mL)	985 (≈ 256 µg/mL)	985 (≈ 256 µg/mL)	492 (≈ 128 µg/mL)	492 (≈ 128 µg/mL)	1970 (≈ 513 µg/mL)	985 (≈ 256 µg/mL)	1970 (≈ 513 µg/mL)	492 (≈ 128 µg/mL)
CC(=O)Cn1cc(-c2csc(N)n2)c(=O)c2cc(F)cc(F)c21	382 (≈ 128 µg/mL)	382 (≈ 128 µg/mL)	764 (≈ 256 µg/mL)	382 (≈ 128 µg/mL)	382 (≈ 128 µg/mL)	382 (≈ 128 µg/mL)	764 (≈ 256 µg/mL)	764 (≈ 256 µg/mL)	382 (≈ 128 µg/mL)	382 (≈ 128 µg/mL)	382 (≈ 128 µg/mL)	191 (≈ 64 µg/mL)	382 (≈ 128 µg/mL)	382 (≈ 128 µg/mL)	764 (≈ 256 µg/mL)	382 (≈ 128 µg/mL)
CC(=O)Cn1cc(-c2csc(C)n2)c(=O)c2cc(F)cc(F)c21	1530 (≈ 513 µg/mL)	1530 (≈ 513 µg/mL)	1530 (≈ 513 µg/mL)	1530 (≈ 513 µg/mL)	1530 (≈ 513 µg/mL)	766 (≈ 256 µg/mL)	1530 (≈ 513 µg/mL)	1530 (≈ 513 µg/mL)	1530 (≈ 513 µg/mL)	383 (≈ 128 µg/mL)	1530 (≈ 513 µg/mL)	1530 (≈ 513 µg/mL)	1530 (≈ 513 µg/mL)	1530 (≈ 513 µg/mL)	383 (≈ 128 µg/mL)	766 (≈ 256 µg/mL)
C/C(Cn1cc(-c2csc(C)n2)c(=O)c2cccc(F)c21)=N\NC(N)=S	658 (≈ 256 µg/mL)	329 (≈ 128 µg/mL)	1320 (≈ 513 µg/mL)	1320 (≈ 513 µg/mL)	658 (≈ 256 µg/mL)	1320 (≈ 513 µg/mL)	1320 (≈ 513 µg/mL)	658 (≈ 256 µg/mL)	329 (≈ 128 µg/mL)	658 (≈ 256 µg/mL)	329 (≈ 128 µg/mL)	329 (≈ 128 µg/mL)	329 (≈ 128 µg/mL)	329 (≈ 128 µg/mL)	1320 (≈ 513 µg/mL)	329 (≈ 128 µg/mL)
CC(=O)Cn1cc(-c2csc(C)n2)c(=O)c2cc(F)ccc21	1620 (≈ 512 µg/mL)	405 (≈ 128 µg/mL)	1620 (≈ 512 µg/mL)	1620 (≈ 512 µg/mL)	1620 (≈ 512 µg/mL)	405 (≈ 128 µg/mL)	810 (≈ 256 µg/mL)	1620 (≈ 512 µg/mL)	810 (≈ 256 µg/mL)	810 (≈ 256 µg/mL)	1620 (≈ 512 µg/mL)	810 (≈ 256 µg/mL)	1620 (≈ 512 µg/mL)	810 (≈ 256 µg/mL)	810 (≈ 256 µg/mL)	1620 (≈ 512 µg/mL)
CC(=O)Cn1cc(-c2csc(N)n2)c(=O)c2cc(F)c(Cl)cc21	182 (≈ 64 µg/mL)	365 (≈ 128 µg/mL)	182 (≈ 64 µg/mL)	365 (≈ 128 µg/mL)	365 (≈ 128 µg/mL)	91 (≈ 32 µg/mL)	91 (≈ 32 µg/mL)	182 (≈ 64 µg/mL)	365 (≈ 128 µg/mL)	365 (≈ 128 µg/mL)	182 (≈ 64 µg/mL)	91 (≈ 32 µg/mL)	729 (≈ 256 µg/mL)	91 (≈ 32 µg/mL)	729 (≈ 256 µg/mL)	365 (≈ 128 µg/mL)
C/C(Cn1cc(-c2csc(N)n2)c(=O)c2cc(F)c(F)cc21)=N\NC(N)=S	78 (≈ 31.9 µg/mL)	39 (≈ 15.9 µg/mL)	78 (≈ 31.9 µg/mL)	78 (≈ 31.9 µg/mL)	627 (≈ 256 µg/mL)	314 (≈ 128 µg/mL)	1260 (≈ 513 µg/mL)	1260 (≈ 513 µg/mL)	1260 (≈ 513 µg/mL)	314 (≈ 128 µg/mL)	314 (≈ 128 µg/mL)	314 (≈ 128 µg/mL)	627 (≈ 256 µg/mL)	314 (≈ 128 µg/mL)	627 (≈ 256 µg/mL)	314 (≈ 128 µg/mL)
CC(=O)Cn1cc(-c2csc(C)n2)c(=O)c2cccc(F)c21	405 (≈ 128 µg/mL)	810 (≈ 256 µg/mL)	810 (≈ 256 µg/mL)	810 (≈ 256 µg/mL)	810 (≈ 256 µg/mL)	810 (≈ 256 µg/mL)	810 (≈ 256 µg/mL)	405 (≈ 128 µg/mL)	405 (≈ 128 µg/mL)	1620 (≈ 512 µg/mL)	810 (≈ 256 µg/mL)	405 (≈ 128 µg/mL)	810 (≈ 256 µg/mL)	1620 (≈ 512 µg/mL)	1620 (≈ 512 µg/mL)	405 (≈ 128 µg/mL)
Nc1nc(-c2c[nH]c3cc(F)c(F)cc3c2=O)cs1	459 (≈ 128 µg/mL)	459 (≈ 128 µg/mL)	459 (≈ 128 µg/mL)	459 (≈ 128 µg/mL)	918 (≈ 256 µg/mL)	229 (≈ 64 µg/mL)	229 (≈ 64 µg/mL)	459 (≈ 128 µg/mL)	459 (≈ 128 µg/mL)	229 (≈ 64 µg/mL)	459 (≈ 128 µg/mL)	459 (≈ 128 µg/mL)	459 (≈ 128 µg/mL)	459 (≈ 128 µg/mL)	918 (≈ 256 µg/mL)	918 (≈ 256 µg/mL)
OC(Cn1cncn1)(Cn1cncn1)c1ccc(F)cc1F [FLUCONAZOLE]	–	–	–	–	–	3 (≈ 0.919 µg/mL)	13 (≈ 3.98 µg/mL)	6 (≈ 1.84 µg/mL)	25 (≈ 7.66 µg/mL)	802 (≈ 246 µg/mL)	–	–	–	–	–	–
